# Reference: patent EP4700023A1, “GLP-1R RECEPTOR AGONIST COMPOUND SALT AND CRYSTAL FORM THEREOF, PREPARATION METHOD THEREFOR AND USE THEREOF” (Chengdu Vincentage Pharma Co., Ltd., priority 2023, dated 2024)
# Key:
# [1] = Pharmacokinetic evaluation in rats; assay type: in vivo; settings: plasma; Rat PK, oral (PO), 10 mg/kg
# Method: Rats were used as test animals, and the plasma drug concentrations at different time points after gavage administration of the test sample were measured. The pharmacokinetic behavior of the compound of the present disclosure in rats was studied to evaluate its metabolic characteristics. For each experimental group, 3 rats with similar body weights were selected and orally administered a single dose of 10 mg/kg. […] Pharmacokinetic parameter calculations were performed using metabolic kinetic data analysis software WinNonlin 7.0 by non-compartmental analysis (NCA) based on plasma concentration data.
# A test sample with a final preparation concentration (based on the content of the compound of formula I) of 1.0 mg/mL was prepared for oral administration, using a 0.5% CMC Na aqueous solution as the preparation solvent.
# Administration: After overnight fasting (12 hours), rats were administered by gavage at a dose of 10 mg/kg.
# The blood samples were placed in heparinized sample tubes, and centrifuged at 4°C and 3500 rpm for 10 minutes to separate plasma, which was then stored at -20°C. Food was provided 2 hours after administration.
# Determination of the content of the compound to be tested in rat plasma after gavage administration: After thawing plasma samples at room temperature, 300 µL of internal standard (terfenadine 200 ng/mL, acetonitrile) was added to each sample. The mixtures were vortexed for 1 min and then centrifuged at 4°C and 15400 rpm for 10 min. The supernatant was diluted 20-fold with 80% acetonitrile-water and then injected for LC/MS/MS analysis.
# Solubility test = assay type: physicochemical; settings: thermodynamic from solid, water, 37°C, HPLC
# Method: Approximately 10 mg of the crystal compound was weighed and added to 3 mL of water, shaken, and maintained at 37°C.
# [2] = Purity test after storage in an oven at set temperature (stability); assay type: physicochemical; settings: 80 °C for 30 days (footnote c)
# [3] = Compressibility test (tableting, XRPD detection); assay type: physicochemical; settings: compressed into tablets
# [4] = Hygroscopicity test method (DVS); assay type: physicochemical; settings: 80% RH, 25°C, DVS
# Method: Hygroscopicity test method (DVS): The hygroscopicity of the sample was measured using SMS Intrinsic Plus. The sample was weighed into a sample pan, equilibrated at 25°C until dm/dt was less than 0.002%, and then measured in time mode. The humidity was adjusted from 60%-90%-0%-90%-0% RH, with increments of 10% RH per step, and each humidity level was maintained for 1 hour.
# [5] = Purity test after storage in an oven at set temperature (stability); assay type: physicochemical
# Method: Purity test: The sample to be tested was dissolved in a methanol solution, and the sample purity was measured by HPLC.
# [6] = Grindability test (mortar, XRPD detection); assay type: physicochemical
# Method: Grindability test: An appropriate amount of the crystal compound to be tested was placed in a mortar and ground for 2 min and 5 min, followed by XRPD detection.
# [7] = Comparison of crystal forms of the salt (behaviour during preparation); settings: during the preparation process
SMILES,AUC(0-inf) [1] [ng·h/mL],AUC(0-t) [1] [ng·h/mL],Cmax [1] [ng/mL],Tmax [1] [min],half-life [1] [min],solubility at 24 h (Solubility test) [µg/mL],Solid form after 80°C (result after 30 days) [2],Compressibility (20 Mp) [3],Hygroscopicity (80% RH) [4] [%],"Hygroscopicity (80% RH), description in words [4] [% RH linear reversible]","Purity, 2 to 8°C (6 months) ([5]; 2 to 8°C, 6 months, HPLC) [%]","Purity, Onset ([5]; Onset (before storage), HPLC) [%]","Thermal stability ([5]; conclusion from Table 13, degrades under heating or room temperature)","Purity, 60°C (7 day) ([5]; oven, 60°C, 7 day, HPLC) [%]","Purity, 80°C (result after 30 days) ([5]; oven, 80 °C for 30 days (footnote c), HPLC) [%]","Grindability (mortar 5 min), purity change [6] [%]","Grindability (mortar 5 min), solid form ([6]; XRPD)",Crystal form stability during preparation [7]
O=C(O)c1ccc2nc(CN3CCC(c4ccccc4OCc4ccc(Cl)cc4F)CC3)n(C[C@@H]3CCO3)c2c1 [Compound of formula I],401,396,154,40,65.4,< 1,amorphous,"Significant reduction in crystallinity, amorphization",0.25,10 to 90,82.49,99.15,poor thermal stability,99.15,70.18,6.5,Amorphous,–
"C1COCCO1.NC(CO)(CO)CO.O=C(O)c1ccc2nc(CN3CCC(c4ccccc4OCc4ccc(Cl)cc4F)CC3)n(CC3CCO3)c2c1 [Crystal form B of the 1,4-dioxane solvate of the 2-amino-2-(hydroxymethyl)-1,3-propanediol salt of (S)-2-((4-(2-((4-chloro-2-fluorobenzyl)oxy)phenyl)piperidin-1-yl)methyl)-1-(oxetan-2-aminomethyl)-1H-benzo[d]imidazole-6-carboxylate]",–,–,–,–,–,–,–,–,–,–,–,–,–,–,–,–,–,"unstable, prone to crystal form transformation during preparation"
